From patent publication US10131653B2, “Heterocyclic compound” (TAKEDA PHARMACEUTICAL COMPANY LIMITED, priority 2015, dated 2018)
Counter-ions that a name gives are not always drawn.

Experiments:
human OX2 receptor = target: T1, human OX2 receptor (Homo sapiens, UniProt O43614); experiment: Measurement of orexin receptor antagonistic activity (calcium fluorescence, FLIPRtetra); format: cell-based; settings: CHO, 10 μM test compound; CHO cells expressing human OX2 receptor; OX-A 0.3 nM; read-out: Human Orexin2 receptor inhibition (at 10 μM)
T1 construct: expressed in transfected cells; host or cells: CHO cells
T1 sequence (O43614 1-444): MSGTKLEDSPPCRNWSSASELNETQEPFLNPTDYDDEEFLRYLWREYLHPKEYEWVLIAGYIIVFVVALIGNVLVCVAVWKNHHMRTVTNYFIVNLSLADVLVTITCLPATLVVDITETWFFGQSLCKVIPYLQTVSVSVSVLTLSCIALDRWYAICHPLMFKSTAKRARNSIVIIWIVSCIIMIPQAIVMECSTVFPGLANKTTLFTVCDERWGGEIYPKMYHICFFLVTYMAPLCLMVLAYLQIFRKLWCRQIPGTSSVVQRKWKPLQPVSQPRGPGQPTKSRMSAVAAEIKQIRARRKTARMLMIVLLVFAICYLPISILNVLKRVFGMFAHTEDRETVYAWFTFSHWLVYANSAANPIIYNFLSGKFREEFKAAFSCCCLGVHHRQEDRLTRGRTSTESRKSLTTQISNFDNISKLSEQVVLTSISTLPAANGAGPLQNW
Procedure: (§1) Measurement of Orexin Receptor Antagonistic Activity
(§2) CHO cells forcibly expressing human OX1 receptor or human OX2 receptor were seeded in each well of 384 well black transparent bottom plate (BD Falcon) at 7,500 cells/well, and cultured for one day in a 5% CO2 incubator at 37° C. […] The plate was stood for 30 min in a 5% CO2 incubator at 37° C., and further stood at room temperature for 30 min. A test compound prepared by diluting with assay buffer B (HBSS, 20 mM HEPES, 0.1% BSA) was added at 10 μL/well, and then OX-A (OX1 receptor, final concentration; 1 nM) or OX-A (OX2 receptor, final concentration; 0.3 nM) was added at 10 μL/well, and the fluorescence value was measured by FLIPRtetra (Molecular Devices) every one sec for 2 min.

human OX1 receptor = target: T2, human OX1 receptor (Homo sapiens, UniProt O43613); experiment: as above; format: cell-based; settings: CHO, 10 μM test compound; CHO cells expressing human OX1 receptor; OX-A 1 nM; read-out: Human Orexin1 receptor inhibition (at 10 μM)
T2 construct: expressed in transfected cells; host or cells: CHO cells
T2 sequence (O43613 1-425): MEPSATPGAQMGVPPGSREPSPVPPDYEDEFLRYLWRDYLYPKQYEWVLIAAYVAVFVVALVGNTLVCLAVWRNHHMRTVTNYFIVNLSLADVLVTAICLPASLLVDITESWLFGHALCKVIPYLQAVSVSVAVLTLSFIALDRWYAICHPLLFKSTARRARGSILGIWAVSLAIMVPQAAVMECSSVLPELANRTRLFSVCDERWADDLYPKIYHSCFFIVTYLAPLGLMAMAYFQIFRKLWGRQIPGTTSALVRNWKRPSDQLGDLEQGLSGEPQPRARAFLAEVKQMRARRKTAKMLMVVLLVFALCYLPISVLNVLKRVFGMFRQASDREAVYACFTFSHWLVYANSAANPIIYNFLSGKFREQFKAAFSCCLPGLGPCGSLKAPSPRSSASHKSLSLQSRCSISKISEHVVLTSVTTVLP
Procedure: as §1, §2

| Compound | inhibition at 10 µM (human OX2 receptor) | inhibition at 10 µM (human OX1 receptor) |
| --- | --- | --- |
| Cc1cc(N2CCN(C(=O)c3ccccc3-n3ncnn3)CCO2)nc(C)n1 [Example 31, (2-(2,6-dimethyl-pyrimidin-4-yl)-1,2,5-oxadiazepan-5-yl) (2-(2H-tetrazol-2-yl)phenyl) methanone] | 100% | -2% |
| Cc1cc(N2CCN(C(=O)c3ccccc3-c3cncs3)CCO2)nc(C)n1 [Example 32, (2-(2,6-dimethyl-pyrimidin-4-yl)-1,2,5-oxadiazepan-5-yl) (2-(1,3-thiazol-5-yl)phenyl) methanone] | 96% | 38% |
| Cc1ccc(-n2nccn2)c(C(=O)N2CCON(c3cccc(C)n3)CC2)c1 [Example 33, (2-(6-methylpyridin-2-yl)-1,2,5-oxadiazepan-5-yl)(5-methyl-2-(2H-1,2,3-triazol-2-yl)phenyl)methanone] | 99% | 44% |
| Cc1cc(C)nc(N2CCN(C(=O)c3cc(C)ccc3-n3nccn3)CCO2)c1 [Example 34, (2-(4,6-dimethylpyridin-2-yl)-1,2,5-oxadiazepan-5-yl)(5-methyl-2-(2H-1,2,3-triazol-2-yl)phenyl)methanone] | 99% | 97% |
| Cc1ccc(-n2nccn2)c(C(=O)N2CCON(c3cc(C)nc(C)c3)CC2)c1 [Example 35, (2-(2,6-dimethylpyridin-4-yl)-1,2,5-oxadiazepan-5-yl)(5-methyl-2-(2H-1,2,3-triazol-2-yl)phenyl)methanone] | 5% | -4% |
| COc1cccc(N2CCN(C(=O)c3ccccc3-c3nccs3)CCO2)n1 [Example 36, (2-(6-methoxypyridin-2-yl)-1,2,5-oxadiazepan-5-yl)(2-(1,3-thiazol-2-yl)phenyl)methanone] | 100% | 67% |
| COc1cc(N2CCN(C(=O)c3ccccc3-c3nccs3)CCO2)ccn1 [Example 37, (2-(2-methoxypyridin-4-yl)-1,2,5-oxadiazepan-5-yl)(2-(1,3-thiazol-2-yl)phenyl)methanone] | 85% | 19% |
| Cc1ccc(-n2nccn2)c(C(=O)N2CCON(c3ncc4ccccc4n3)CC2)c1 [Example 38, (5-methyl-2-(2H-1,2,3-triazol-2-yl)phenyl)(2-(quinazolin-2-yl)-1,2,5-oxadiazepan-5-yl)methanone] | 90% | 92% |
| Cc1ccc(-n2nccn2)c(C(=O)N2CCON(c3nc4ccc(Cl)cc4o3)CC2)c1 [Example 39, (2-(6-chloro-1,3-benzoxazol-2-yl)-1,2,5-oxadiazepan-5-yl)(5-methyl-2-(2H-1,2,3-triazol-2-yl)phenyl)methanone] | 98% | 100% |
| Cc1cc(N2CCN(C(=O)c3cc(C4CCC4)ccc3-n3nccn3)CCO2)nc(C)n1 [Example 41, (5-cyclobutyl-2-(2H-1,2,3-triazol-2-yl)phenyl)(2-(2,6-dimethylpyrimidin-4-yl)-1,2,5-oxadiazepan-5-yl)methanone] | 56% | 10% |
| Cc1cc(N2CCN(C(=O)c3ccccc3-c3ncccn3)CCO2)nc(C)n1 [Example 42, (2-(2,6-dimethylpyrimidin-4-yl)-1,2,5-oxadiazepan-5-yl)(2-(pyrimidin-2-yl)phenyl)methanone] | 101% | 41% |
| Cc1cc(N2CCN(C(=O)c3ccccc3-c3ccccn3)CCO2)nc(C)n1 [Example 43, (2-(2,6-dimethylpyrimidin-4-yl)-1,2,5-oxadiazepan-5-yl)(2-(pyridin-2-yl)phenyl)methanone hydrochloride] | 91% | 35% |
| Cc1cc(N2CCN(C(=O)c3cc(C#N)ccc3-n3nccn3)CCO2)nc(C)n1 [Example 44, 3-((2-(2,6-dimethylpyrimidin-4-yl)-1,2,5-oxadiazepan-5-yl)carbonyl)-4-(2H-1,2,3-triazol-2-yl)benzonitrile] | 103% | -16% |
| Cc1cc(C)nc(N2CCN(C(=O)c3ccccc3C#N)CCO2)n1 [Example 45, 2-((2-(4,6-dimethylpyrimidin-2-yl)-1,2,5-oxadiazepan-5-yl)carbonyl)benzonitrile] | 19% | 16% |
| Cc1cc(C)nc(N2CCN(C(=O)c3ccccc3)CCO2)n1 [Example 46, (2-(4,6-dimethylpyrimidin-2-yl)-1,2,5-oxadiazepan-5-yl) (phenyl)methanone] | 36% | 4% |
| COc1cccc(OC)c1C(=O)N1CCON(c2nc(C)cc(C)n2)CC1 [Example 47, (2,6-dimethoxyphenyl) (2-(4,6-dimethylpyrimidin-2-yl)-1,2,5-oxadiazepan-5-yl)methanone] | 97% | 23% |
| COc1cccc(F)c1C(=O)N1CCON(c2nc(C)cc(C)n2)CC1 [Example 48, (2-(4,6-dimethylpyrimidin-2-yl)-1,2,5-oxadiazepan-5-yl) (2-fluoro-6-methoxyphenyl) methanone] | 73% | 10% |
| Cc1cc(C)nc(N2CCN(C(=O)c3cccc(C#N)c3)CCO2)n1 [Example 49, 3-((2-(4,6-dimethylpyrimidin-2-yl)-1,2,5-oxadiazepan-5-yl)carbonyl) benzonitrile] | 14% | 9% |
| Cc1cc(C)nc(N2CCN(C(=O)c3ccc(C#N)cc3)CCO2)n1 [Example 50, 4-((2-(4,6-dimethylpyrimidin-2-yl)-1,2,5-oxadiazepan-5-yl)carbonyl) benzonitrile] | -3% | 3% |
| COc1ccccc1C(=O)N1CCON(c2nc(C)cc(C)n2)CC1 [Example 51] | 68% | 22% |
| COc1ccc(Cl)c(C(=O)N2CCON(c3nc(C)cc(C)n3)CC2)c1 [Example 52, (2-chloro-5-methoxyphenyl) (2-(4,6-dimethylpyrimidin-2-yl)-1,2,5-oxadiazepan-5-yl)methanone] | 96% | 16% |
| Cc1cc(C)nc(N2CCN(C(=O)c3ccccc3Cl)CCO2)n1 [Example 53, (2-chlorophenyl) (2-(4,6-dimethylpyrimidin-2-yl)-1,2,5-oxadiazepan-5-yl)methanone] | 57% | 9% |
| Cc1cc(C)nc(N2CCN(C(=O)c3cc(Cl)ccc3Cl)CCO2)n1 [Example 54, (2,5-dichlorophenyl) (2-(4,6-dimethylpyrimidin-2-yl)-1,2,5-oxadiazepan-5-yl)methanone] | 84% | 16% |
| Cc1cc(C)nc(N2CCN(C(=O)c3cccc(Cl)c3Cl)CCO2)n1 [Example 55, (2,3-dichlorophenyl) (2-(4,6-dimethylpyrimidin-2-yl)-1,2,5-oxadiazepan-5-yl)methanone] | 96% | 18% |
| Cc1cc(C)nc(N2CCN(C(=O)c3cc(Cl)cc(Cl)c3)CCO2)n1 [Example 56, (3,5-dichlorophenyl) (2-(4,6-dimethylpyrimidin-2-yl)-1,2,5-oxadiazepan-5-yl)methanone] | 96% | 21% |
